Test [1] addresses T1, Neuropeptide Y receptor type 1 (Homo sapiens, UniProt P25929).
T1 sequence (P25929 whole entry): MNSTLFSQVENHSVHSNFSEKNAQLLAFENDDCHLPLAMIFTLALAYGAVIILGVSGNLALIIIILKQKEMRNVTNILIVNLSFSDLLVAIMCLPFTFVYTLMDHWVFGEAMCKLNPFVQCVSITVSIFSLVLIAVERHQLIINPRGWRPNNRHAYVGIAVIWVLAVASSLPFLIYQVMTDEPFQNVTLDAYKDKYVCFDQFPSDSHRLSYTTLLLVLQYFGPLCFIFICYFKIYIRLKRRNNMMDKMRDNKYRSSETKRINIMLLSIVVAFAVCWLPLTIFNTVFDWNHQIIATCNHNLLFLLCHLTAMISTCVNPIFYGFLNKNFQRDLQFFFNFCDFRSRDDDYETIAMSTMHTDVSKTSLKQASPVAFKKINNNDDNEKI
Kind of test: Displacement of 125I-PYY from human neuropeptide Y Y1 receptor expressed in human SK-N-MC cell membrane assessed as inhibition constant incubated for 1 hrs by competitive binding assay.

Test [2] addresses T2, C-X-C chemokine receptor type 2 (Homo sapiens, UniProt P25025).
T2 sequence (P25025 whole entry): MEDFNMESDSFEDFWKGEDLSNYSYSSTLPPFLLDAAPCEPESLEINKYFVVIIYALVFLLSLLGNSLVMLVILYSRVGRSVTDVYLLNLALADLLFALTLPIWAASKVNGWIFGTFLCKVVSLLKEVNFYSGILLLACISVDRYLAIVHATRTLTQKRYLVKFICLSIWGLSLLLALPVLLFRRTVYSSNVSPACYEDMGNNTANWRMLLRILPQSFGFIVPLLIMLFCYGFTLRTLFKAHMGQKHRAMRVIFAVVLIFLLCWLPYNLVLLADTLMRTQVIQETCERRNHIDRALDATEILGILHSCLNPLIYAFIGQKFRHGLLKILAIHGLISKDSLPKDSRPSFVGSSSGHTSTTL
Kind of test: Antagonist activity at CXCR2 (unknown origin).

The target of test [3] is T3, Bifunctional epoxide hydrolase 2 (Homo sapiens, UniProt P34913).
T3 sequence (P34913 whole entry): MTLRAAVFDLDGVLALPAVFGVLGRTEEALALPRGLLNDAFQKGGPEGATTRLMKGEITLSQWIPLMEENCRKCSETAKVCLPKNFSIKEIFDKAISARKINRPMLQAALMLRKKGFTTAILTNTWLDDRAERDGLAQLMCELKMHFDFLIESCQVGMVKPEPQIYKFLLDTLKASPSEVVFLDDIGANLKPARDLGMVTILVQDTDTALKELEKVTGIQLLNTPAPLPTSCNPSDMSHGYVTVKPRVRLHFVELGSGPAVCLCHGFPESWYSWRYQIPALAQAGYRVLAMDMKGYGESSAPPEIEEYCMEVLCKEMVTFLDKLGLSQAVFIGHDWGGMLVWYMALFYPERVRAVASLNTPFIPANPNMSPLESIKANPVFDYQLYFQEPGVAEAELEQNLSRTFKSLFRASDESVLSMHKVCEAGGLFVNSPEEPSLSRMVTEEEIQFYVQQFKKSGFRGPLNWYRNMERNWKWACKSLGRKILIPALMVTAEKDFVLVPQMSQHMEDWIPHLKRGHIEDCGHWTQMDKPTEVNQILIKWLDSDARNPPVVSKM
The test is described as follows: Inhibition of recombinant soluble epoxide hydrolase (unknown origin) using [3H]1,3-diphenyl-trans-propene oxide as substrate assessed as inhibition constant incubated for 5 mins.

In the case of `COC(=O)C1=C(C)NC(C)=C(C(=O)OC)C1c1cccc(NC(=O)NCCCN2CCC(c3cccc(OC)c3)CC2)c1`, the Ki in test [1] worked out at 3.3 nM.

For `COC(=O)C1=CNC(C)=C(C(=O)OC)C1c1cccc(N/C(=N/C#N)NCCCN2CCC(c3cccc(OC)c3)CC2)c1` (stereo unspecified), in test [1], the Ki came out at 5.1 nM.

Take `COC(=O)C1=CNC(C)=C(C(=O)OC)C1c1cccc(Nc2nnc(CN3CCC(c4cccc(OC)c4)CC3)o2)c1` (stereo unspecified): in test [1], the Ki is 99 nM.

As to `COC(=O)C1=CNC(C)=C(C(=O)OC)C1c1cccc(Nc2c(NCCCN3CCC(c4cccc(OC)c4)CC3)c(=O)c2=O)c1` (stereo unspecified), the Ki in test [1] is 21 nM.

Compound `CN(C)C(=O)c1cccc(Nc2c(Nc3ccccc3)c(=O)c2=O)c1O` [3-(3,4-dioxo-2-(phenylamino)cyclobut-1-enylamino)-2-hydroxy-N,N-dimethylbenzamide] returned an IC50 in test [2] of 2 nM.

`CCCCCCCCCCCCNC(=O)NC1CCCCC1` [US8815951, 297]: in test [3], the inhibitory constant (Ki) is 7 nM.
